Source: paper PMC9189929, “Synthesis, Screening and Characterization of Novel Potent Arp2/3 Inhibitory Compounds Analogous to CK-666” (Frontiers in Pharmacology, 2022)
Converted amounts (≈) assume the structure as drawn. “Also recorded” adds a separate entry of the source.

Columns and labels:
[1] = tested on: MCF10A cells; assay: EdU incorporation / cell cycle progression screen in MCF10A cells; type: cell-based, human; conditions: for Outcome of EdU incorporation screen: 0.025 to 100 μM; for IC50: Homo sapiens, MCF-10A, 18 h treatment, rough values from Figure 1 graphs, read-out: IC50 (concentration required for 50% decrease of EdU-positive cells)
Protocol: For cell cycle progression using EdU, MCF10A cells were seeded in 384-well plates at a density of 800 cells per well. […] EdU from kit C10337 (ThermoFischer Scientific, Waltham, MA, United States) was then added to the cells at 10 μM and incubated for 2.5 h. Cells were fixed in 4% paraformaldehyde for 30 min at room temperature. Click-iT reaction was performed for 1 h at room temperature, protected from light, with 5 µM Alexa Fluor 488 azide in (100 mM Tris, 1 mM CuSO4, 50 mM Ascorbic Acid, pH 8.5). Nuclei were counterstained with Hoechst 33,342 (Thermo Fisher Scientific). Imaging and analysis were performed using the ImageXpress Micro XL High-Content Screening System (Molecular Devices LLC, San Jose, CA, United States). IC50 values were determined by sigmoidal curve fitting using GraphPad Prism six software.

[2] = tested on: B16-F1 cells; assay: Lamellipodium formation in B16-F1 cells (cortactin immunofluorescence); type: cell-based, mouse; conditions: for Inhibition of lamellipodium formation: 100 μM, 1 h; for Dose-dependent inhibition of lamellipodium formation, potency relative to CK-666: dose-dependent assay (Figure 2D)
Protocol: Lyophilized compounds were resuspended with fresh DMSO from sealed vials (cell biology grade). Compounds, stored at +4°C, were used within a week. B16-F1 cells were seeded onto glass coverslips coated for 1 h with 25 μg/ml laminin (Sigma) in (50 mM Tris, 150 mM NaCl, pH 7.4). […] Cell were then processed for immunofluorescence.
Cells were fixed in 3.2% PFA on PBS, then quenched with 50 mM NH4Cl and permeabilised with 0.5% Triton X-100. After blocking in 2% BSA cells were incubated with antibodies (1–5 μg/ml for the primary, 5 μg/ml for the secondary). Total actin in cells was visualized by phalloidin staining. Nuclei were stained with 0.3 μg/ml DAPI (Roche). Coverslips were mounted in Dako Fluorescence Mounting Medium (Agilent). For immunofluorescence, ARPC2 rabbit polyclonal antibody (Millipore, 07–227), Cortactin mouse monoclonal 4F11 (Millipore, 05–180) were used. Secondary goat anti-mouse and anti-rabbit antibodies conjugated with Alexa Fluor 555 and 647 respectively were from Life Technologies. Phalloidin conjugated with Alexa Fluor 488 was from Tebu-bio.
(§1) Image analysis was performed in ImageJ or FIJI software. To measure wound healing, boundaries of the wound were drawn manually at different time points, then wound size was measured.

[3] = tested on: B16-F1 cells; assay: Wound healing (cell migration) of B16-F1 cells; type: cell-based, mouse; conditions: for Inhibition of cell migration (wound healing) compared with 100 µM CK-666: compound at 25 µM
Protocol: For the wound healing, B16-F1 cells were seeded onto 8-well Ibidi dishes coated with laminin, and grown to confluence. Wounds in the cell monolayer were obtained by scratching the monolayer with a pipet tip. Detached cells were immediately washed away and new medium containing the various compounds was added. Cells were then used for videomicroscopy.
Videomicroscopy was performed on an inverted Axio Observer microscope (Zeiss) equipped with a Pecon Zeiss incubator XL multi S1 RED LS (Heating Unit XL S, Temp module, CO2 module, Heating Insert PS and CO2 cover), Definite focus module and a Hamamatsu camera C10600 Orca-R2. Phase contrast images were taken every 30 min for 24 h using the 10X/0.25 Plan-Apochromat air objective. For immunofluorescence, slides were observed and imaged with the 63X/1.4 Plan-Apochromat oil objective. Fluorophores were excited with the HBO 100 W lamp (Osram) installed in the HXP 120 Metal halide fluorescence light source (Zeiss).
as §1

[4] = molecular target: T1, Arp2/3 (Bos taurus, UniProt A7MB62+P61157); assay: Pyrene-actin polymerization assay; type: biochemical, bovine; conditions: for IC50: 1.5 μM actin (10% pyrenyl-labeled), read-out: IC50 of Arp2/3-mediated actin polymerization; for IC50 / Arp2/3 inhibition reached at saturation: 20 nM Arp2/3, 250 nM N-WASP VCA; for Arp2/3 inhibition reached at saturation: 1.5 μM actin
T1 construct: purchased Cytoskeleton, Inc
Protocol: Actin was purified from rabbit muscle and was pyrenyl-labeled ([Carlier et al., 1984]; [Malm, 1984]). Arp2/3 was from Cytoskeleton, Inc. VCA domain of N-WASP was purified as previously described ([Clainche et al., 2003]). Pyrene-actin polymerization assays were performed as previously ([Romero et al., 2007]). Briefly, CaATP-actin was converted into MgATP-actin in (5 mM Tris, 0.2 mM ATP, 0.1 mM CaCl2, 1 mM DTT, 1 mM MgCl2, and 0.2 mM EGTA, pH 7.6) and kept on ice for no more than 1 h. Actin polymerization was monitored in (5 mM Tris, 50 mM KCl, 0.2 mM ATP, 0.1 mM CaCl2, 1 mM DTT, 1 mM MgCl2, 0.2 mM EGTA, pH 7.6) in the presence of 2% DMSO alone or 2% DMSO containing the appropriated compound concentration. The increase in fluorescence of 10% pyrenyl-labeled actin was monitored using a Safas spectrofluorimeter (λexc = 366 nm, λem = 407 nm). The maximum rate of actin polymerization was derived from the maximum slope of the polymerization curve multiplied by [total polymer]/(RFUmax—RFUmin) [total polymer] is the total actin minus the critical concentration (0.1 μM) and RFU, Relative Fluorescence Unit. The maximum elongation rates of actin polymerization were plotted as a function of the concentration of the different compounds. For CK-666, 59, 69 and 71, curves were fitted with the following equation to determine the IC50. Mrate= Rmax−Rmax−Rmin/1+IC50/(Compound Conc.) where Mrate is the measured maximum rate of actin polymerization at a given compound concentration, Rmax is the maximum rate of actin polymerization with no compound, and Rmin is the maximum rate of actin polymerization at saturating concentration of compound.
The curve of compound 15 was fitted with a linear decay. The IC50 was determined at half inhibition of actin polymerization.

[5] = tested on: sea urchin embryos; assay: Sea urchin embryo development assay; type: in vivo, Paracentrotus lividus
Protocol: The procedure was described in detail in [Semenova et al., 2018]. Briefly, adult sea urchins, Paracentrotus lividus L (Echinidae), were collected from the Mediterranean Sea on the Cyprus coast and kept in an aerated seawater tank. Gametes were obtained by intracoelomic injection of 0.5 M KCl. Eggs were washed with filtered seawater and fertilized by adding drops of diluted sperm. Embryos were cultured at room temperature under gentle agitation with a motor-driven plastic paddle (60 rpm) in filtered seawater. […] For treatment with test compounds, 5 ml aliquots of embryo suspension were transferred to six-well plates and incubated at a concentration of 1,000–2,000 embryos/ml. For images, sedimented embryos were concentrated in the center of the well by gentle rotation of the culture plate, and 200 μl aliquots containing several hundred embryos were used to take pictures (up to 20 images from different fields). Embryos selected for Figure 4 were representative of the population.
(§2) Stock solutions of compounds were prepared in DMSO at 50–250 mM concentration followed by a 10-fold dilution with 96% EtOH. This procedure enhanced the solubility of the test compounds in the salty seawater. Maximal tolerated concentrations of DMSO and EtOH in the assay were determined to be 0.05 and 1%, respectively. Higher concentrations of either DMSO (>0.1%) or EtOH (>1%) caused nonspecific alterations and retardation of the sea urchin embryo development independent of the treatment stage. Maximum solubility of compounds 15, 59, 69, and 71 was about 5–20 mM in seawater, since visible crystals formed at higher concentrations.
The effects were assessed after exposure of fertilized eggs (8–15 min post fertilization, 45–55 min before the first mitotic cycle completion) to 2-fold decreasing concentrations of the compound. Embryonic development was monitored until the beginning of active feeding at four-arm pluteus stage (33–36 h postfertilization). Developmental abnormalities were estimated quantitatively as minimal effective concentration (MEC), resulting in inhibition of archenteron elongation or skeletal spicule formation.

[6] = Maximum solubility in seawater; type: physicochemical; conditions: saline or isotonic, kinetic from dmso stock, visible crystals formed at higher concentrations
Protocol: as §2

[7] = treated at zygote stage, monitored to four-arm pluteus
[8] = observed up to four-arm mid-pluteus stage

| SMILES | Outcome of EdU incorporation screen [1] | IC50 [1] | Inhibition of lamellipodium formation [2] | solubility [6] | Inhibition of cell migration (wound healing) compared with 100 µM CK-666 [3] | IC50 [4] | Arp2/3 inhibition reached at saturation [4] | further results |
| --- | --- | --- | --- | --- | --- | --- | --- | --- |
| Cc1[nH]c2ccccc2c1CCNC(=O)c1cc([N+](=O)[O-])ccc1Cl [Compound 12, 2-Chloro-N-[2-(2-methyl-1H-indol-3-yl)ethyl]-5-nitrobenzamide] | scored positive | 13.8 µM | significantly less active than CK-666 |  |  |  |  |  |
| CCc1cc2cc(C(=O)NCCc3c(C)[nH]c4ccc(C)cc34)sc2s1 [Compound 24, N-[2-(2,5-Dimethyl-1H-indol-3-yl)ethyl]-5-ethylthieno[2,3-b]thiophene-2-carboxamide] | scored positive | 4.01 µM | significantly less active than CK-666 |  |  |  |  |  |
| COCC(=O)NCCc1c[nH]c2ccccc12 [CK-689, N-(2-(1H-Indol-3-yl)ethyl)-2-methoxy-acetamide, reference compound] |  |  | formed a single wide lamellipodium encompassing most cell perimeter |  |  |  |  | Inhibition of wound healing ([3]; 100 µM): but not CK-689, inhibits wound healing; Activity against Arp2/3 in vitro ([4]; pyrene-actin assay): inactive |
| Cc1[nH]c2c(C(F)(F)F)cccc2c1CCNC(=O)c1cc(S(=O)(=O)NC2CC2)c(Cl)cc1Cl [Compound 71, 2,4-Dichloro-5-[(cyclopropylamino)sulfonyl]-N-{2-[2-methyl-7-(trifluoromethyl)-1H-indol-3-yl]ethyl}benzamide] | scored positive | 3.58 µM |  | 5 to 20 µM (≈ 2.67 to 10.7 µg/mL) | inhibited cell migration even more effectively | 539 µM | saturation was not reached | Developmental abnormality ([5]; 5 μM): suppressed plutei growth; Developmental abnormality ([5]; 20 μM): defective gastrulation was observed; Minimum effective concentration, Systemic Toxicity [5, 7]: 5 µM; Cell rounding and detachment in wound healing assay ([3]; 25 µM): still induced cell rounding; Cell rounding and detachment in wound healing assay ([3]; 100 µM): induced cell rounding followed by detachment from the substrate; Dose-dependent inhibition of lamellipodium formation, potency relative to CK-666 [2]: significantly more potent than CK-666 |
| Cc1[nH]c2ccccc2c1CCNC(=O)c1ccccc1C(=O)c1ccccc1 [Compound 15, 2-Benzoyl-N-[2-(2-methyl-1H-indol-3-yl)ethyl]benzamide] | scored positive | 20 µM |  | 5 to 20 µM (≈ 1.91 to 7.65 µg/mL) | inhibited cell migration as efficiently as 100 µM CK-666 | 104 µM | 100% | Developmental abnormality ([5]; 5 μM): suppressed plutei growth; Developmental abnormality ([5]; 20 μM): Non-specific defects; also recorded: defective gastrulation was observed; Minimum effective concentration, Systemic Toxicity [5, 7]: 5 µM; Cell rounding and detachment in wound healing assay ([3]; 25 µM): not observed; Cell rounding and detachment in wound healing assay ([3]; 100 µM): induced cell rounding followed by detachment from the substrate; Dose-dependent inhibition of lamellipodium formation, potency relative to CK-666 [2]: significantly more potent than CK-666 |
| Cc1ccc2[nH]c(C)c(CCNC(=O)c3ccc(C(=O)c4ccccc4)o3)c2c1 [Compound 30, 5-Benzoyl-N-[2-(2,5-dimethyl-1H-indol-3-yl)ethyl]-2-furamide] | scored positive | 0.696 µM | significantly less active than CK-666 |  |  |  |  |  |
| Cc1[nH]c2c(Cl)cccc2c1CCNC(=O)c1cc(S(=O)(=O)N(C)C)c(Cl)cc1Cl [Compound 69, 2,4-Dichloro-N-[2-(7-chloro-2-methyl-1H-indol-3-yl)ethyl]-5-[(dimethylamino)sulfonyl]benzamide] | scored positive | 50.5 µM |  | 5 to 20 µM (≈ 2.44 to 9.78 µg/mL) | inhibited cell migration as efficiently as 100 µM CK-666 | 61 µM | 67% | Developmental phenotype ([5]; 12 μM, 22°C): Defective gastrulation; Effect on archenteron elongation [5, 8]: inhibited elongation of the archenteron at approximately half-size; Effect on primary mesenchyme cell (PMC) migration [5, 8]: altered PMC migration resulting in the lack of ventrolateral clusters and spicules; Minimum effective concentration, Inhibition of Archenteron elongation [5, 7]: 5 µM; Minimum effective concentration, Inhibition of Spicule formation [5, 7]: 5 µM |
